According to patent US10221137B2, “Herbicidal phenylpyridines” (BASF SE, priority 2015, dated 2019):

Columns and labels:
Assay in all cases: greenhouse experiment, post-emergence treatment
Format in all cases: in vivo
Conditions in all cases: application rate of 16 g/ha, post-emergence method; scale from 0 to 100
Chenopodium album = tested on: Chenopodium album
Source text: (§1) The seeds of the test plants were sown separately for each species. For the post-emergence treatment, the test plants were first grown to a height of 3 to 15 cm, depending on the plant habit, and only then treated with the active ingredients which had been suspended or emulsified in water. For this purpose, the test plants were either sown directly and grown in the same containers, or they were first grown separately as seedlings and transplanted into the test containers a few days prior to treatment. Depending on the species, the plants were kept at 10-25° C. or 20-35° C., respectively. The test period extended over 2 to 4 weeks. During this time, the plants were tended, and their response to the individual treatments was evaluated. Evaluation was carried out using a scale from 0 to 100. 100 means no emergence of the plants, or complete destruction of at least the aerial moieties, and 0 means no damage, or normal course of growth. A good herbicidal activity is given at values of at least 70 and a very good herbicidal activity is given at values of at least 85. The plants used in the greenhouse experiments were of the following species: [table]

Setaria viridis = tested on: Setaria viridis
Source text: as §1

Amaranthus retroflexus = tested on: Amaranthus retroflexus
Source text: as §1

For `COC(=O)C(OC)Oc1cc(-c2ncc(Cl)cc2Cl)ccc1Cl` (racemic) [Example 6], the “herbicidal activity against Chenopodium album” value (Chenopodium album) was “good herbicidal activity (A good herbicidal activity is given at values of at least 70)”, the “herbicidal activity against Setaria viridis” value (Setaria viridis) was “very good herbicidal activity (a very good herbicidal activity is given at values of at least 85)” and the “herbicidal activity against Amaranthus retroflexus” value (Amaranthus retroflexus) was “very good herbicidal activity (a very good herbicidal activity is given at values of at least 85)”.
`COc1ccc(CNC(=O)C(OC)Oc2cc(-c3ncc(C(F)(F)F)cc3Cl)c(F)cc2Cl)cc1` (stereo not drawn) [Example 44] was tested, and the “herbicidal activity against Chenopodium album” value (Chenopodium album) was “very good herbicidal activity (a very good herbicidal activity is given at values of at least 85)”, the “herbicidal activity against Setaria viridis” value (Setaria viridis) was “good herbicidal activity (A good herbicidal activity is given at values of at least 70)” and the “herbicidal activity against Amaranthus retroflexus” value (Amaranthus retroflexus) was “very good herbicidal activity (a very good herbicidal activity is given at values of at least 85)”.
